Assay results from patent publication US20230085307A1, “PYRIDAZINONE COMPOUND AND HERBICIDE” (NISSAN CHEMICAL CORPORATION, priority 2019, published 2023).

What was measured:
[1] = test system: blackgrass; assay: Test Example 4: herbicidal effect by soil treatment (Table 19, symbol J); format: in vivo, blackgrass (Alopecurus myosuroides); settings: amount of applied herbicide 320 g/ha
How it was run: (§1)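 Seeds were sown in sterilized diluvial soil and covered with about 1.5 cm of soil. An emulsion formulation diluted with water to a predetermined herbicide amount was sprayed evenly onto the soil surface. Plants grew in a greenhouse at 25° C. to 30° C., and the effect was scored three weeks after application using criteria from an earlier test.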

[2] = test system: Japanese bulrush; assay: Test Example 1: herbicidal activity, application before weed generation under submerged conditions (Table 16, symbol B); format: in vivo, Japanese bulrush (Schoenoplectus juncoides); settings: amount of applied herbicide 320 g/ha
How it was run: (§2)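 Emulsion formulation, water-diluted to set dose, was put onto the flooded surface (4 cm depth, alluvial soil) the same day weeds were sown and 2.5-leaf rice transplanted. After 3 weeks at 25-30 °C under glass, each species was rated 0 (≤5% kill) to 5 (≥90% kill).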

[3] = test system: velvetleaf; assay: Test Example 4: herbicidal effect by soil treatment (Table 19, symbol M); format: in vivo, velvetleaf (Abutilon theophrasti); settings: amount of applied herbicide 320 g/ha
How it was run: as §1

[4] = test system: redroot pigweed; assay: Test Example 4: herbicidal effect by soil treatment (Table 19, symbol N); format: in vivo, redroot pigweed (Amaranthus retroflexus); settings: amount of applied herbicide 320 g/ha
How it was run: as §1

[5] = test system: persian speedwell; assay: Test Example 4: herbicidal effect by soil treatment (Table 19, symbol R); format: in vivo, Persian speedwell (Veronica persica); settings: amount of applied herbicide 320 g/ha
How it was run: as §1

[6] = test system: oval-leafed pondweed; assay: Test Example 1: herbicidal activity, application before weed generation under submerged conditions (Table 16, symbol C); format: in vivo, oval-leafed pondweed (Monochoria vaginalis); settings: amount of applied herbicide 320 g/ha
How it was run: as §2

[7] = test system: rice flat sedge; assay: Test Example 3: herbicidal effect by foliage application, Wagner pot (Table 18, symbol E); format: in vivo, rice flat sedge (Cyperus iria); settings: 320 g/ha
How it was run: (§3)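 Plants were sown in alluvial soil held under 0.1–0.5 cm standing water and grown 14 days in a greenhouse at 25–30 °C. An emulsifiable formulation, water-diluted to the set dose, was then sprayed onto the foliage, and effects were scored three weeks later using previously defined criteria.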

[8] = test system: barnyard grass; assay: Test Example 3: herbicidal effect by foliage application, Wagner pot (Table 18, symbol H); format: in vivo, barnyard grass (Echinochloa crus-galli); settings: 320 g/ha
How it was run: as §3

[9] = test system: chickweed; assay: Test Example 5: herbicidal effect by foliage application, plastic box (Table 20, symbol P); format: in vivo, common chickweed (Stellaria media); settings: 320 g/ha, foliage application after 14-day growth, evaluated three weeks after application
How it was run: (§4)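 Plants sown in sterilized diluvial soil and grown 14 days in a greenhouse at 25° C to 30° C, then sprayed on the foliage with the compound's emulsion diluted in water to a predetermined herbicide amount. Injury to weeds and crops scored three weeks after application on a visual rating scale.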

[10] = test system: oval-leafed pondweed; assay: Test Example 2: herbicidal activity, application during weed generation under submerged conditions (Table 17, symbol C); format: in vivo, oval-leafed pondweed (Monochoria vaginalis); settings: AAH 320 g/ha; application during weed generation, submerged conditions
How it was run: (§5)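 3-wk visual-criteria score after one water-surface dose. Emulsion formulation, water-diluted to set rate; applied at 1–2 leaf stage; alluvial soil, 4 cm standing water; seeds co-sown; greenhouse 25–30° C.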

[11] = test system: southern crabgrass; assay: Test Example 4: herbicidal effect by soil treatment (Table 19, symbol F); format: in vivo, southern crabgrass (Digitaria ciliaris); settings: amount of applied herbicide 320 g/ha
How it was run: as §1

[12] = test system: Italian ryegrass; assay: Test Example 5: herbicidal effect by foliage application, plastic box (Table 20, symbol K); format: in vivo, Italian ryegrass (Lolium multiflorum); settings: 320 g/ha, foliage application after 14-day growth, evaluated three weeks after application
How it was run: as §4

[13] = test system: barnyard grass; assay: Test Example 5: herbicidal effect by foliage application, plastic box (Table 20, symbol H); format: in vivo, barnyard grass (Echinochloa crus-galli); settings: 320 g/ha, foliage application after 14-day growth, evaluated three weeks after application
How it was run: as §4

[14] = test system: late watergrass; assay: Test Example 2: herbicidal activity, application during weed generation under submerged conditions (Table 17, symbol A); format: in vivo, late watergrass (Echinochloa oryzicola); settings: AAH 320 g/ha; application during weed generation, submerged conditions
How it was run: as §5

[15] = test system: blackgrass; assay: Test Example 5: herbicidal effect by foliage application, plastic box (Table 20, symbol J); format: in vivo, blackgrass (Alopecurus myosuroides); settings: 320 g/ha, foliage application after 14-day growth, evaluated three weeks after application
How it was run: as §4

[16] = test system: southern crabgrass; assay: Test Example 5: herbicidal effect by foliage application, plastic box (Table 20, symbol F); format: in vivo, southern crabgrass (Digitaria ciliaris); settings: 320 g/ha, foliage application after 14-day growth, evaluated three weeks after application
How it was run: as §4

Compound	Herbicidal effect by soil treatment, J: blackgrass [1]	Herbicidal effect, B: Japanese bulrush [2]	Herbicidal effect by soil treatment, M: velvetleaf [3]	Herbicidal effect by soil treatment, N: redroot pigweed [4]	Herbicidal effect by soil treatment, R: persian speedwell [5]	Herbicidal effect, C: oval-leafed pondweed [6]	herbicidal effect on rice flat sedge (E) [7]	herbicidal effect on barnyard grass (H) [8]	herbicidal effect on P: chickweed (evaluation grade 0-5) [9]	herbicidal effect rating, C: oval-leafed pondweed [10]	Herbicidal effect by soil treatment, F: southern crabgrass [11]	herbicidal effect on K: Italian ryegrass (evaluation grade 0-5) [12]	herbicidal effect on H: barnyard grass (evaluation grade 0-5) [13]	herbicidal effect rating, A: late watergrass [14]	herbicidal effect on J: blackgrass (evaluation grade 0-5) [15]	herbicidal effect on F: southern crabgrass (evaluation grade 0-5) [16]
CCCC(=O)Oc1c(C)nn(C)c(=O)c1-c1c(-c2ccc(OC(F)(F)F)cc2)sc2cc(F)ccc12 [3-144]	0 (Herbicidal rate of 5% or less (almost no effect))	3 (Herbicidal rate of 40% or more and less than 70%)	0 (Herbicidal rate of 5% or less (almost no effect))	4 (Herbicidal rate of 70% or more and less than 90%)	0 (Herbicidal rate of 5% or less (almost no effect))	0 (Herbicidal rate of 5% or less (almost no effect))	5 (Herbicidal rate of 90% or more (almost completely withered))	5 (Herbicidal rate of 90% or more (almost completely withered))	5 (Herbicidal rate of 90% or more (almost completely withered))	2 (Herbicidal rate of 20% or more and less than 40%)	1 (Herbicidal rate of 5% or more and less than 20%)	0 (Herbicidal rate of 5% or less (almost no effect))	4 (Herbicidal rate of 70% or more and less than 90%)	2 (Herbicidal rate of 20% or more and less than 40%)	0 (Herbicidal rate of 5% or less (almost no effect))	1 (Herbicidal rate of 5% or more and less than 20%)
COc1ccc2c(-c3c(OC(=O)C4CCCCC4)c(C)nn(C)c3=O)c(-c3ccccc3OC)sc2c1 [3-156]	0 (Herbicidal rate of 5% or less (almost no effect))	4 (Herbicidal rate of 70% or more and less than 90%)	0 (Herbicidal rate of 5% or less (almost no effect))	0 (Herbicidal rate of 5% or less (almost no effect))	4 (Herbicidal rate of 70% or more and less than 90%)	4 (Herbicidal rate of 70% or more and less than 90%)	3 (Herbicidal rate of 40% or more and less than 70%)	5 (Herbicidal rate of 90% or more (almost completely withered))	5 (Herbicidal rate of 90% or more (almost completely withered))	5 (Herbicidal rate of 90% or more (almost completely withered))	0 (Herbicidal rate of 5% or less (almost no effect))	3 (Herbicidal rate of 40% or more and less than 70%)	5 (Herbicidal rate of 90% or more (almost completely withered))	3 (Herbicidal rate of 40% or more and less than 70%)	4 (Herbicidal rate of 70% or more and less than 90%)	5 (Herbicidal rate of 90% or more (almost completely withered))
COc1ccccc1-c1sc2cc(SC)ccc2c1-c1c(O)c(C)nn(C)c1=O [3-163]	3 (Herbicidal rate of 40% or more and less than 70%)	3 (Herbicidal rate of 40% or more and less than 70%)	1 (Herbicidal rate of 5% or more and less than 20%)	5 (Herbicidal rate of 90% or more (almost completely withered))	3 (Herbicidal rate of 40% or more and less than 70%)	3 (Herbicidal rate of 40% or more and less than 70%)	3 (Herbicidal rate of 40% or more and less than 70%)	5 (Herbicidal rate of 90% or more (almost completely withered))	5 (Herbicidal rate of 90% or more (almost completely withered))	0 (Herbicidal rate of 5% or less (almost no effect))	4 (Herbicidal rate of 70% or more and less than 90%)	4 (Herbicidal rate of 70% or more and less than 90%)	5 (Herbicidal rate of 90% or more (almost completely withered))	3 (Herbicidal rate of 40% or more and less than 70%)	5 (Herbicidal rate of 90% or more (almost completely withered))	5 (Herbicidal rate of 90% or more (almost completely withered))
CCCOc1ccc(-c2sc3c(F)cccc3c2-c2c(OC(=O)CCC)c(C)nn(C)c2=O)cc1 [4-010]	0 (Herbicidal rate of 5% or less (almost no effect))	0 (Herbicidal rate of 5% or less (almost no effect))	0 (Herbicidal rate of 5% or less (almost no effect))	4 (Herbicidal rate of 70% or more and less than 90%)	3 (Herbicidal rate of 40% or more and less than 70%)	3 (Herbicidal rate of 40% or more and less than 70%)	5 (Herbicidal rate of 90% or more (almost completely withered))	5 (Herbicidal rate of 90% or more (almost completely withered))	5 (Herbicidal rate of 90% or more (almost completely withered))	3 (Herbicidal rate of 40% or more and less than 70%)	0 (Herbicidal rate of 5% or less (almost no effect))	4 (Herbicidal rate of 70% or more and less than 90%)	5 (Herbicidal rate of 90% or more (almost completely withered))	4 (Herbicidal rate of 70% or more and less than 90%)	4 (Herbicidal rate of 70% or more and less than 90%)	0 (Herbicidal rate of 5% or less (almost no effect))
CCCC(=O)Oc1c(C)nn(C)c(=O)c1-c1c(-c2ccc(OC)cc2)sc2c(Cl)cccc12 [4-024]	0 (Herbicidal rate of 5% or less (almost no effect))	2 (Herbicidal rate of 20% or more and less than 40%)	0 (Herbicidal rate of 5% or less (almost no effect))	3 (Herbicidal rate of 40% or more and less than 70%)	0 (Herbicidal rate of 5% or less (almost no effect))	3 (Herbicidal rate of 40% or more and less than 70%)	5 (Herbicidal rate of 90% or more (almost completely withered))	4 (Herbicidal rate of 70% or more and less than 90%)	5 (Herbicidal rate of 90% or more (almost completely withered))	0 (Herbicidal rate of 5% or less (almost no effect))	0 (Herbicidal rate of 5% or less (almost no effect))	4 (Herbicidal rate of 70% or more and less than 90%)	4 (Herbicidal rate of 70% or more and less than 90%)	3 (Herbicidal rate of 40% or more and less than 70%)	0 (Herbicidal rate of 5% or less (almost no effect))	1 (Herbicidal rate of 5% or more and less than 20%)
